{
  "source": "patent US9364545B2",
  "about": "“Thermosensitive injectable hydrogel for drug delivery” (Taipei Medical University, priority 2014, dated 2016)",
  "key": {"[1]": {"system": "MCF-7 human breast cancer cells", "test": "Cell viability, MTT assay", "type": "cell-based", "conditions": "MCF7 cells, 24 h incubation", "description": "(§1) C26 colon carcinoma cells and HT29 human colon cancer cells were cultured with RPMI-1640 with 10% fetal bovine serum and 10% penicillinstreptomycin. MCF-7 human breast cancer cells MEM were cultured with Eagle's MEM with 10% fetal bovine serum and 10% penicillinstreptomycin. Cells were seeded at a density of 5×10^4 cells per well in 24-well plates. After 24 hours of incubation at 37° C. with 5% CO2, the medium was replaced with new medium containing Dox formulation. After 24 hours incubation, cell survival was then measured using tetrazolium salt MTT assay. One hundred microliters of MTT (6 mg/mL) was added to each well for 4 hours. The medium was removed after […] incubation and then 200 μl DMSO was added to dissolve any purple formazan crystal formed. Remove the solvent was removed and dried in an oven at 50° C. for 2 hours. Cell viability was measured by ELISA reader and absorbance set at 520 nm."}, "[2]": {"system": "HT29 human colon cancer cells", "test": "Cell viability, MTT assay", "type": "cell-based", "conditions": "24 h incubation", "description": "as §1"}, "[3]": {"system": "C26 colon carcinoma cells", "test": "Cell viability, MTT assay", "type": "cell-based", "conditions": "24 h incubation", "description": "as §1"}, "[4]": {"test": "Body weight and death as indication of systemic toxicity", "type": "in vivo, Balb/c male mice", "conditions": "after intratumoral injection, during the experiment", "description": "(§2) The suspension of […] (1.0×10^6 cells/100 μl) was injected subcutaneously in the right flank of Balb/c male mice using 26 G needles. After 7 days tumor size reached 100-300 mm^3. The […] were randomly divided into three groups (n=3) and received following treatments. Group 1 mice were treated with an intratumoral injection of sterile PBS as control group; Group 2, mice received an intratumoral injection of Dox-HA hydrogel; Group 3, mice received an intratumoral injection of free Dox solution (4 mg/kg in 0.1 mL). The mice were weighed and tumor size was measured using a capliper for 10 days post intratumoral injection. The tumor volume (V) was calculated with the following formula V=[length×(width)^2]/2\nWe also monitored change in body weight during the experiment as an indication of systemic toxicity."}, "C26 tumor": {"system": "C26 tumor", "test": "Tumor inhibition study, intratumoral injection", "type": "in vivo, Balb/c male mice", "description": "as §2\nOn day 10, the mice were sacrificed and the tumor masses harvested, weighted, and photographed. Tumor inhibition rate was calculated using the equation. Tumor inhibition rate (%)=(Wc−Wt)/Wc where Wc is the weight of the tumor in the control group and Wt is the weight of the tumor in the test formulation group (L. Chen, X. Sha, X. Jiang, Y. Chen, Q. Ren, X. Fang, Pluronic P105/F127 mixed micelles for the delivery of docetaxel against Taxol-resistant non-small cell lung cancer: optimization and in vitro, in vivo evaluation, International journal of nanomedicine, 8 (2013) 73-84).\nThe in vivo antitumor efficacy of DHMF-15 hydrogel formulation was evaluated in the C26 tumor-bearing mice model. Mice were randomized into […] when the tumor size reached 100 mm^3. Three groups of mice received intratumoral injection of PBS, DHMF-15 hydrogel, free Dox solution, DMF-15 hydrogel, and DF-15 hydrogel respectively. […] PBS treatments had no substantial effect on C26 tumor growth, and the tumor volumes increased rapidly. After administration for 10 days, the average tumor volume in the PBS treated mice had reached over 1000 mm^3. […] Ranked from high to low inhibition efficacy, the formulations are ordered as follows: DHMF-15, free Dox solution, DMF-15, DF-15, PBS."}},
  "data": [
    {"molecule": "COc1cccc2c1C(=O)c1c(O)c3c(c(O)c1C2=O)C[C@@](O)(C(=O)CO)C[C@@H]3O[C@H]1C[C@H](N)[C@H](O)[C@H](C)O1.Cl", "note": "[free Dox solution, Doxorubicin Hydrochloride]", "values": [
      {"measurement": "Cytotoxicity (cell viability)", "setting": "[1]", "value": "potent cytotoxicity"},
      {"measurement": "Cytotoxicity (cell viability)", "setting": "[2]", "value": "potent cytotoxicity"},
      {"measurement": "Cytotoxicity (cell viability)", "setting": "[3]", "value": "potent cytotoxicity"},
      {"measurement": "Toxicity-induced death and body weight loss", "setting": "[4]", "value": "neither toxicity-induced death nor serious body weight loss"},
      {"measurement": "Tumor size as % of that in the PBS control group", "setting": "C26 tumor; after 10 days, intratumoral injection", "value": 42.45, "unit": "%"},
      {"measurement": "Tumor weight compared to the control group", "setting": "C26 tumor; day 10", "value": "significantly reduced"},
      {"measurement": "Tumor inhibition rate", "setting": "C26 tumor; excised tumor weight on day 10, (Wc−Wt)/Wc", "value": 80.65, "unit": "%"}
    ]}
  ]
}
